From patent US8501959B2, “Cycloalkane[B]indole antagonists of prostaglandin D2 receptors” (Panmira Pharmaceuticals, LLC, priority 2008, dated 2013)

Tests used:
[1] = target: T1, human DP1 receptor (Homo sapiens, UniProt Q13258); experiment: DP1 binding assay (radioligand [3H]BWA868C); details: [3H]BWA868C binding, human platelet membranes; read-out: hDP1
T1 construct: tissue Biological Specialty Corporation; host or cells: human platelets, membrane preparation
T1 sequence (Q13258 1-359): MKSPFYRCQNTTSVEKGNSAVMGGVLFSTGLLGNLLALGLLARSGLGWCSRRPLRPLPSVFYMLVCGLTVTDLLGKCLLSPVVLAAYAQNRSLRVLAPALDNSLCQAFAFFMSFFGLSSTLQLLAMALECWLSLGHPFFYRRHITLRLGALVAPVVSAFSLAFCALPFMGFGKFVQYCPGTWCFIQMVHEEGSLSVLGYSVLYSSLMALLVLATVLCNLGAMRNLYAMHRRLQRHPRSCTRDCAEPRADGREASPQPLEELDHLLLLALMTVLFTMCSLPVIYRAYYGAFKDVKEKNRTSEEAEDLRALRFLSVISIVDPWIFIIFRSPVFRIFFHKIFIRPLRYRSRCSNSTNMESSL
Description: The ability of a compound to bind to the human DP1 receptor was evaluated via a radioligand membrane binding assay using the DP1 selective synthetic ligand [^3H]BWA868C. Packed human platelets (Biological Specialty Corporation), were resuspended in 6 volumes of Hepes/HBSS buffer (10 mM Hepes, 1 mM DTT in Hanks Balanced Salt Solution (HBSS), lysed and centrifuged at 75,000×g to pellet the membranes. Membranes were resuspended in Hepes/HBSS buffer to approximately 12 mg protein/ml. Membranes (20 μg protein/well) are incubated in 96-well plates with 2 nM [^3H]BWA868C and test compound in Assay Buffer (50 mM Hepes, 10 mM MnCl2, 1 mM EDTA, plus or minus 0.2% human serum albumin, pH 7.4) for 60 minutes at room temperature. The reactions are terminated by rapid filtration through Whatman GF/C glass fibre filter plates. The filter plates were pre-soaked in 0.33% polethylenimine for 30 minutes at room temperature then washed in Wash Buffer (50 mM Hepes, 0.5 M NaCl pH 7.4) prior to harvesting. After harvesting, the filter plates are washed 3 times with 1 ml cold Wash Buffer then dried. Scintillant is then added to the plates and the radioactivity retained on the filters is determined on a Packard TopCount (Perkin Elmer). Specific binding is determined as total radioactive binding minus non-specific binding in the presence of 10 μM BW A868C. IC50s were determined using GraphPad prism analysis of drug titration curves.

[2] = target: T2, human DP2 receptor (Homo sapiens, UniProt Q9Y5Y4); experiment: DP2/CRTH2 binding assay (radioligand [3H]PGD2); details: [3H]PGD2 binding, membranes of HEK293 cells expressing recombinant human DP2; read-out: hDP2
T2 construct: expressed in transfected cells
T2 sequence (Q9Y5Y4 1-395): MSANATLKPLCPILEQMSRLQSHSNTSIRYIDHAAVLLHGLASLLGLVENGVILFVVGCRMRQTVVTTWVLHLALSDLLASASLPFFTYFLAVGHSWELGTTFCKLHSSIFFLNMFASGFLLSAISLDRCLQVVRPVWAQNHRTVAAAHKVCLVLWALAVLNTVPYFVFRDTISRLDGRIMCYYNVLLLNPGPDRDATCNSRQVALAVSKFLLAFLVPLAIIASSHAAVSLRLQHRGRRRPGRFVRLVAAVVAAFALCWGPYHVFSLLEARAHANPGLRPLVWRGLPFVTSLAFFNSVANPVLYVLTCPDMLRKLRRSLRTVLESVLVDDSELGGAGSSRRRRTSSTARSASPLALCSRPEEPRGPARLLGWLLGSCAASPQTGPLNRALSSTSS
Description: The ability of a compound to bind to the human DP2 receptor is assessed via a radioligand binding assay using [^3H]PGD2. HEK293 cells stably expressing recombinant human DP2 are resuspended in 10 mM Hepes, 7.4 containing 1 mM DTT, lysed and centrifuged at 75,000×g to pellet the membranes. The membranes are resuspended in 10 mM Hepes, 7.4 containing 1 mM DTT and 10% glycerol to approximately 5 mg protein/ml. Membranes (2-10 μg protein/well) are incubated in 96-well plates with 1 nM [^3H]PGD2 and test compound in Assay Buffer (50 mM Hepes, 10 mM MnCl2, 1 mM EDTA, plus or minus 0.2% human serum albumin, pH 7.4) for 60 minutes at room temperature. The reactions are terminated by rapid filtration through Whatman GF/C glass fibre filter plates. The filter plates were pre-soaked in 0.33% polythylenimine for 30 minutes at room temperature then washed in Wash Buffer (50 mM Hepes, 0.5 M NaCl pH 7.4) prior to harvesting. After harvesting, the filter plates are washed 3 times with 1 ml cold Wash Buffer then dried. Scintillant is then added to the plates and the radioactivity retained on the filters is determined on a Packard TopCount (Perkin Elmer). Specific binding is determined as total radioactive binding minus non-specific binding in the presence of 10 μM PGD2. IC50s were determined using GraphPad prism analysis of drug titration curves.

Compound | IC50 [1] [nM] | IC50 [2] [nM]
O=C(O)CN(C1CCc2c(c3ccccc3n2CC(=O)O)C1)S(=O)(=O)c1ccc(F)cc1 (centres unmarked) [Compound 1-1, {3-[Carboxymethyl-(4-fluoro-benzenesulfonyl)-amino]-1,2,3,4-tetrahydro-carbazol-9-yl}-acetic acid] | > 1000 | < 300
CC(C)(O)CCn1c2c(c3ccccc31)CC(N(CC(=O)O)S(=O)(=O)c1ccc(F)cc1)CC2 (centres unmarked) [Compound 1-2, {(4-Fluoro-benzenesulfonyl)-[9-(3-hydroxy-3-methyl-butyl)-2,3,4,9-tetrahydro-1H-carbazol-3-yl]-amino}-acetic acid] | > 1000 | > 1000
CC(C)(O)CN(C1CCc2c(c3ccccc3n2CCC(=O)O)C1)S(=O)(=O)c1ccc(F)cc1 (centres unmarked) [Compound 1-3, 3-{3-[(4-Fluoro-benzenesulfonyl)-(2-hydroxy-2-methyl-propyl)-amino]-1,2,3,4-tetrahydro-carbazol-9-yl}-propionic acid] | > 1000 | > 1000
CC(C)(O)CCn1c2c(c3ccccc31)CC(N(CC(C)(C)O)S(=O)(=O)c1ccc(F)cc1)CC2 (centres unmarked) [Compound 1-4, 4-FluoroN-[9-(3-hydroxy-3-methyl-butyl)-2,3,4,9-tetrahydro-1H-carbazol-3-yl]-N-(2-hydroxy-2-methyl-propyl)-benzenesulfonamide] | > 1000 | > 1000
NC(=O)CN(C1CCc2c(c3ccccc3n2CCC(=O)O)C1)S(=O)(=O)c1ccc(F)cc1 (centres unmarked) [Compound 1-5, 3-{3-[Carbamoylmethyl-(4-fluoro-benzenesulfonyl)-amino]-1,2,3,4-tetrahydro-carbazol-9-yl}-propionic acid] | > 1000 | > 1000
O=C(O)CCn1c2c(c3ccccc31)CC(N(CC(=O)O)S(=O)(=O)c1ccc(F)cc1)CC2 (centres unmarked) [Compound 1-6, 3-{3-[Carboxymethyl-(4-fluoro-benzenesulfonyl)-amino]-1,2,3,4-tetrahydro-carbazol-9-yl}-propionic acid] | > 1000 | > 1000
O=C(O)CCn1c2c(c3ccccc31)C[C@H](NS(=O)(=O)c1ccc(F)cc1)CC2 [Ramatroban, reference compound] | > 1000 | > 300
